{"source": "patent US8663669B2", "about": "“Pesticide treatment of soils or substrates with sulphur compounds” (Arkema France, priority 2002, dated 2014)", "key": {"[1]": {"test_system": "termite (Reticulitermes santonensis)", "experiment": "Insecticidal in vitro fumigation test on termites", "assay_type": "in vivo", "conditions": "24 hours of fumigation, mortality counted at the end of 48 hours; 25° C.", "method": "Dead wood infested with termites was collected from the soil on ground occupied by a colony. This dead wood serves as breeding medium. The breeding is maintained at a constant 25° C. and a day/night 12:12 alternation.\nThe insects are removed in an amount of 2 soldiers per 28 workers.\nThe tests are carried out in hermetically closed glass jars having a volume of 3 L and containing the insects.\nThe product to be tested is introduced through a hole 2 mm in diameter with the aid of a micropipette and deposited on a filter paper (2×5 cm: Whatman No. 1) suspended at the centre of the jar where it migrates by capillarity and vaporizes rapidly. The hole is hermetically closed again as quickly as possible.\nThe jars are placed for 24 hours in an incubator under the same breeding conditions.\nAt the end of 24 hours, after a few instants of aeration, a first count is made and then the insects are placed again under breeding conditions for another 24 hours. The counting of the mortality is therefore carried out at the end of 48 hours. […] Each test is carried out on a population of 30 to 50 insects and is accompanied by a control without treatment. Several repeats are carried out with doses close to the LC50."}, "[2]": {"test_system": "larvae of Meloidogyne arenaria", "experiment": "Nematicidal in vitro test on second-stage juvenile larvae", "assay_type": "in vivo", "conditions": "for Immobility rate after 48 h: 24 h in solution then 24 h in pure water", "method": "The second-stage juvenile larvae (the free and infesting stage) are immersed for 24 hours in the test solution and then the number of larvae paralysed are counted before transferring them into pure water for another 24 hours. At the end of the 48 hours which have thus elapsed, the larvae paralysed are again counted and the larvae truly dead are counted the next day.\n(§1) The breeding of the nematodes was carried out on tomato plants. The tests were carried out with, aqueous solutions of DMDS at 0.0001%, 0.1%, 1% and 5% by mass, of DPDS at 1%, 5% and 10% by mass, and of allicin at 0.0003%, 0.0015% and 0.003% by mass, compared with a control consisting of pure water, and repeated five times. The ovicidal activity was also evaluated according to the same modalities, by counting the number of hatchings after 5 to 20 days following exposure to the products."}, "[3]": {"test_system": "eggs of nematodes (Meloidogyne arenaria)", "experiment": "Ovicidal activity on the eggs of nematodes (number of hatchings)", "assay_type": "in vivo", "method": "as §1"}, "[4]": {"test_system": "termite (Reticulitermes santonensis)", "conditions": "value given for comparison, not among the 3 products tested; cited from earlier work"}}}
{"smiles": "C=CCSSCC=C", "note": "[DADS, diallyldisulphide]", "values": [{"measurement": "LC50 (Probits method)", "setting": "[1]", "result": 0.011, "unit": "g × 24 h/m^3"}]}
{"smiles": "CCCSSCCC", "note": "[DPDS, dipropyl disulphide]", "values": [{"measurement": "Concentration for total efficacy (100% mortality)", "setting": "[2]; by mass, aqueous solution", "result": "greater than or equal to 1%"}, {"measurement": "Mortality rate after 72 h", "setting": "[2]; concentration by mass 1 %", "result": 100, "unit": "%"}, {"measurement": "Immobility rate after 48 h", "setting": "[2]; concentration by mass 1 %", "result": 100, "unit": "%"}, {"measurement": "Immobility rate after 24 h", "setting": "[2]; concentration by mass 1 %, aqueous solution", "result": 89, "unit": "%"}, {"measurement": "Mortality rate after 72 h", "setting": "[2]; concentration by mass 5 %", "result": 100, "unit": "%"}, {"measurement": "Immobility rate after 48 h", "setting": "[2]; concentration by mass 5 %", "result": 100, "unit": "%"}, {"measurement": "Immobility rate after 24 h", "setting": "[2]; concentration by mass 5 %, aqueous solution", "result": 93, "unit": "%"}, {"measurement": "Mortality rate after 72 h", "setting": "[2]; concentration by mass 10 %", "result": 100, "unit": "%"}, {"measurement": "Immobility rate after 48 h", "setting": "[2]; concentration by mass 10 %", "result": 100, "unit": "%"}, {"measurement": "Immobility rate after 24 h", "setting": "[2]; concentration by mass 10 %, aqueous solution", "result": 95, "unit": "%"}, {"measurement": "Nematostatic and nematicidal activity", "setting": "[2]; concentration of greater than or equal to 1%", "result": "high nematostatic and nematicidal activity"}, {"measurement": "Ovicidal activity", "setting": "[3]; 1-10 % by mass", "result": "very high ovicidal activity"}, {"measurement": "Number of hatchings (cumulative)", "setting": "[3]; concentration by mass 1 %, D5, control 550", "result": 117}, {"measurement": "Number of hatchings (cumulative)", "setting": "[3]; concentration by mass 1 %, D8, control 810", "result": 183}, {"measurement": "Number of hatchings (cumulative)", "setting": "[3]; concentration by mass 1 %, D12, control 990", "result": 200}, {"measurement": "Number of hatchings (cumulative)", "setting": "[3]; concentration by mass 1 %, D15, control 1 030", "result": 200}, {"measurement": "Number of hatchings (cumulative)", "setting": "[3]; concentration by mass 1 %, D19, control 1 030", "result": 200}, {"measurement": "Number of hatchings (cumulative)", "setting": "[3]; concentration by mass 5 %, D5, control 550", "result": 67}, {"measurement": "Number of hatchings (cumulative)", "setting": "[3]; concentration by mass 5 %, D8, control 810", "result": 67}, {"measurement": "Number of hatchings (cumulative)", "setting": "[3]; concentration by mass 5 %, D12, control 990", "result": 67}, {"measurement": "Number of hatchings (cumulative)", "setting": "[3]; concentration by mass 5 %, D15, control 1 030", "result": 67}, {"measurement": "Number of hatchings (cumulative)", "setting": "[3]; concentration by mass 5 %, D19, control 1 030", "result": 67}, {"measurement": "Number of hatchings (cumulative)", "setting": "[3]; concentration by mass 10 %, D5, control 550", "result": 33}, {"measurement": "Number of hatchings (cumulative)", "setting": "[3]; concentration by mass 10 %, D8, control 810", "result": 33}, {"measurement": "Number of hatchings (cumulative)", "setting": "[3]; concentration by mass 10 %, D12, control 990", "result": 33}, {"measurement": "Number of hatchings (cumulative)", "setting": "[3]; concentration by mass 10 %, D15, control 1 030", "result": 33}, {"measurement": "Number of hatchings (cumulative)", "setting": "[3]; concentration by mass 10 %, D19, control 1 030", "result": 33}, {"measurement": "Reduction in the number of hatchings", "setting": "[3]; on the last day of observation", "result": "approximately 97%"}]}
{"smiles": "C=CCS[S+]([O-])CC=C", "note": "(centres unmarked) [allicin, diallyl thiosulphinate]", "values": [{"measurement": "Nematostatic and nematicidal activity", "setting": "[2]; at much lower concentrations (0.0003-0.003% by mass)", "result": "high nematostatic and nematicidal activity"}, {"measurement": "Mortality rate after 72 h", "setting": "[2]; concentration by mass 0.0003 %", "result": 12, "unit": "%"}, {"measurement": "Immobility rate after 48 h", "setting": "[2]; concentration by mass 0.0003 %", "result": 49, "unit": "%"}, {"measurement": "Immobility rate after 24 h", "setting": "[2]; concentration by mass 0.0003 %, aqueous solution", "result": 7, "unit": "%"}, {"measurement": "Mortality rate after 72 h", "setting": "[2]; concentration by mass 0.0015 %", "result": 45, "unit": "%"}, {"measurement": "Immobility rate after 48 h", "setting": "[2]; concentration by mass 0.0015 %", "result": 85, "unit": "%"}, {"measurement": "Immobility rate after 24 h", "setting": "[2]; concentration by mass 0.0015 %, aqueous solution", "result": 19, "unit": "%"}, {"measurement": "Mortality rate after 72 h", "setting": "[2]; concentration by mass 0.003 %", "result": 63, "unit": "%"}, {"measurement": "Immobility rate after 48 h", "setting": "[2]; concentration by mass 0.003 %", "result": 65, "unit": "%"}, {"measurement": "Immobility rate after 24 h", "setting": "[2]; concentration by mass 0.003 %, aqueous solution", "result": 49, "unit": "%"}, {"measurement": "LC50 (Probits method)", "setting": "[1]", "result": 0.010, "unit": "g × 24 h/m^3"}]}
{"smiles": "CBr", "note": "[methyl bromide]", "values": [{"measurement": "LC50 of the comparison fumigant", "setting": "[4]", "result": 0.1, "unit": "g×24 h/m^3"}]}
